Marks after values point to notes of the source that are not given here.
details: pH 2.3

With CCOC(=O)C(C#N)=C(Nc1ccccc1SC)c1cc(Cl)cnc1Cl [Compound 346] as the compound, how does the “Log P” value read?
The value was 3.94.

For CSc1ccccc1NC(=C(C#N)C(=O)OCC(F)(F)F)c1cccnc1Cl [Compound 344], which “Log P” value is on record?
Its value is 3.55.

For CCOC(=O)C(C#N)=C(NC(C)C(C)C)c1cccnc1-c1ccc(F)cc1 (stereo not shown) [Compound 1541], which “Log P” value is on record?
The value was 3.7.

same assay, conditions: pH 2.7

Which “Log P” value does the source give for CCOC(=O)C(C#N)=C(NC(C)C1CC1)c1cc(Cl)sc1Cl (stereo not shown) [Compound 1587] here?
Its value is 4.43^[a].

For CC#CC(C)(C)NC(=C(C#N)C(=O)OCC)c1cn(C)nc1C(F)F [Compound 1043], which “Log P” value is on record?
The value was 2.9^[a].

For CCOC(=O)C(C#N)=C(NC(C)C1CCCO1)c1sc(C)nc1C(F)(F)F (stereo not shown) [Compound 193], which “Log P” value is on record?
Its value is 3.29^[a].

For CCOC(=O)C(C#N)=C(NC(C)C(=O)OCC)c1sc(C)nc1C(F)(F)F (racemic) [Compound 679], which “Log P” value is on record?
Its value is 3.29^[a].

With CCOC(=O)C(C#N)=C(NC(C)C(C)C)c1sccc1Br (stereo not shown) [Compound 941] as the compound, how does the “Log P” value read?
Its value is 4.12^[a].

For CCOC(=O)C(C#N)=C(NC(C)CC)c1nc(Cl)ccc1Cl (racemic) [Compound 837], which “Log P” value is on record?
Its value is 3.67^[a].

With CCCCC[C@H](C)N/C(=C(/C#N)C(=O)OCC)c1ccsc1Br [Compound 861] as the compound, how does the “Log P” value read?
Its value is 4.94^[a].

Which “Log P” value does the source give for CCOC(=O)C(C#N)=C(NC1(c2c(F)cccc2F)CC1)c1cn(C)nc1C(F)(F)F [Compound 530] here?
Its value is 3.48^[a].

For CCOC(=O)C(C#N)=C(NC(C)C1CCCO1)c1ccnc(C(F)(F)F)c1Cl (stereo not shown) [Compound 1624], which “Log P” value is on record?
The value was 3.62^[a].

For CCOC(=O)C(C#N)=C(NC1CC1CC)c1cn(C)nc1C(F)F (stereo not shown) [Compound 1146], which “Log P” value is on record?
Its value is 3.04^[a].

For CCOC(=O)C(C#N)=C(NC1CC2CCC1C2)c1cn(C)nc1C(F)F (stereo not shown) [Compound 1144], which “Log P” value is on record?
The value was 3.46^[a].

For CCOC(=O)C(C#N)=C(NCc1ccccn1)c1sccc1Cl [Compound 159], which “Log P” value is on record?
The value was 2.56^[a].

With CCOC(=O)C(C#N)=C(NC(C)c1ccn(C)n1)c1cccnc1Cl (racemic) [Compound 276] as the compound, how does the “Log P” value read?
Its value is 2.3^[a].

Which “Log P” value does the source give for CCOC(=O)C(C#N)=C(NC(C)C(C)C)c1cn(C)nc1C(C)C (stereo not shown) [Compound 1208] here?
The value was 3.46^[a].

With CCOC(=O)C(C#N)=C(NC(C)c1ccccn1)c1ccnc2ccccc12 (racemic) [Compound 1497] as the compound, how does the “Log P” value read?
Its value is 2.5^[a].

With CCOC(=O)C(C#N)=C(NC(C)c1nccs1)c1c(C)nn(C)c1Cl (stereo not shown) [Compound 98] as the compound, how does the “Log P” value read?
Its value is 2.52^[a].

For CCOC(=O)C(C#N)=C(NC(C)c1nc(C)c(C)s1)c1cn(C)nc1C(F)F (racemic) [Compound 33], which “Log P” value is on record?
The value was 2.96^[a].

Which “Log P” value does the source give for CCOC(=O)C(C#N)=C(Nc1ccc(OC)cc1)c1cn(C)nc1C(F)F [Compound 495] here?
The value was 2.77^[a].

Which “Log P” value does the source give for COC(=O)C(C#N)=C(NC(C)c1ccc(C)cc1)c1cccnc1Cl (stereo not shown) [Compound 409] here?
Its value is 3.28^[a].

With C=CCCCC(C=C)NC(=C(C#N)C(=O)OCC)c1ncc(C(F)(F)F)cc1Cl (racemic) [Compound 1015] as the compound, how does the “Log P” value read?
The value was 4.82^[a].

Which “Log P” value does the source give for CCOC(=O)C(C#N)=C(NC(C)c1nccs1)c1ccncc1F (stereo not shown) [Compound 318] here?
Its value is 2.41^[a].

With CC#CC(C)NC(=C(C#N)C(=O)OCC)c1ccnc(Cl)c1Cl (racemic) [Compound 1386] as the compound, how does the “Log P” value read?
The value was 3.44^[a].

Which “Log P” value does the source give for CCOC(=O)C(C#N)=C(NC(C)(C)C=C(Cl)Cl)c1cn(C)nc1C(F)F [Compound 1106] here?
Its value is 3.31^[a].

For CCOC(=O)C(C#N)=C(NC1CCC1)c1ccnc(Cl)c1F [Compound 1321], which “Log P” value is on record?
The value was 3.39^[a].

For CCOC(=O)C(C#N)=C(Nc1cc(C(F)(F)F)ccc1SC)c1cn(C)nc1C(F)F [Compound 1426], which “Log P” value is on record?
Its value is 3.67^[a].

For CCOC(=O)C(C#N)=C(NC1CSC1)c1cn(C)nc1C(F)F [Compound 1355], which “Log P” value is on record?
The value was 2.54^[a].

For CCOC(=O)C(C#N)=C(NC(C)c1nccs1)c1cc(Cl)cc(Cl)n1 (racemic) [Compound 265], which “Log P” value is on record?
The value was 3.31^[a].

Which “Log P” value does the source give for CCOC(=O)C(C#N)=C(NC(C)C(C)C)c1ccnc(Cl)c1Cl (stereo not shown) [Compound 994] here?
Its value is 3.92^[a].

For CCOC(=O)C(C#N)=C(NCc1ccc(F)cn1)c1sccc1Br [Compound 200], which “Log P” value is on record?
Its value is 3.04^[a].

Which “Log P” value does the source give for CCOC(=O)C(C#N)=C(NC(C)c1c(F)cccc1F)c1cccnc1Cl (stereo not shown) [Compound 1535] here?
The value was 3.27^[a].

With CCCc1nccc(C(NC(C)C(C)C)=C(C#N)C(=O)OCC)c1Cl (stereo not shown) [Compound 1400] as the compound, how does the “Log P” value read?
The value was 4.41^[a].

With CCOC(=O)C(C#N)=C(NC(C)(C)C#Cc1ccc(C)cc1)c1cn(C)nc1C(F)F [Compound 1097] as the compound, how does the “Log P” value read?
The value was 4.11^[a].

With CCCCCC(C)NC(=C(C#N)C(=O)OC)c1sc(C)nc1C(F)(F)F (stereo not shown) [Compound 850] as the compound, how does the “Log P” value read?
Its value is 4.41^[a].

With CCOC(=O)C(C#N)=C(Nc1cccc(Cl)c1)c1ccsc1Br [Compound 539] as the compound, how does the “Log P” value read?
The value was 4.09^[a].

With CCOC(=O)C(C#N)=C(NC(C)C(C)C)c1ncc(Cl)cc1Cl (stereo not shown) [Compound 967] as the compound, how does the “Log P” value read?
The value was 4.19^[a].

For CCOC(=O)C(C#N)=C(NC(C)C(=O)NC1CCCCC1)c1cc(Cl)sc1Cl (stereo not shown) [Compound 1631], which “Log P” value is on record?
The value was 3.83^[a].

Which “Log P” value does the source give for C=CCCCC(C=C)NC(=C(C#N)C(=O)OCC)c1cccnc1Cl (stereo not shown) [Compound 1176] here?
The value was 4.01^[a].

For CCOC(=O)C(C#N)=C(NCC1(C)CCCO1)c1cn(C)nc1C(F)F (stereo not shown) [Compound 1340], which “Log P” value is on record?
The value was 2.54^[a].

Which “Log P” value does the source give for CC(C)C(C)NC(=C(C#N)C(=O)N1CCOCC1)c1cccnc1Cl (stereo not shown) [Compound 1518] here?
Its value is 2.58^[a].

With CCOC(=O)C(C#N)=C(Nc1ccc(C(C)C)cc1)c1ccsc1Br [Compound 536] as the compound, how does the “Log P” value read?
Its value is 4.78^[a].

For CCNC(=O)C(C#N)=C(NC(C)c1ccccn1)c1cn(C)nc1C(F)F (racemic) [Compound 1293], which “Log P” value is on record?
The value was 1.86^[a].

Which “Log P” value does the source give for COCC(C)NC(=C(C#N)C(=O)OC)c1sc(C)nc1C(F)(F)F (racemic) [Compound 663] here?
The value was 2.75^[a].

Which “Log P” value does the source give for CCOC(=O)C(C#N)=C(NC1(c2ccccn2)CC1)c1cccnc1Cl [Compound 284] here?
Its value is 2.56^[a].

For CCOC(=O)C(C#N)=C(Nc1ccccc1OC(C)C)c1sccc1Br [Compound 467], which “Log P” value is on record?
Its value is 4.46^[a].

Which “Log P” value does the source give for C#CC(C)(C)NC(=C(C#N)C(=O)OCC)c1cn(C)nc1OC [Compound 1034] here?
The value was 2.44^[a].

With CCOC(=O)C(C#N)=C(NC(C)C(C)C)c1sccc1C(F)(F)F (stereo not shown) [Compound 944] as the compound, how does the “Log P” value read?
The value was 4.21^[a].

Which “Log P” value does the source give for CCOC(=O)C(C#N)=C(NC1CCC1)c1cn(C)nc1C(Cl)Cl [Compound 1566] here?
Its value is 3.09^[a].

Which “Log P” value does the source give for COC(=O)C(C#N)=C(NC(C)(C)C)c1cccnc1Cl [Compound 775] here?
Its value is 2.31^[a].

With CCOC(=O)C(C#N)=C(NC(C)Cc1c[nH]c2ccccc12)c1ccsc1I (racemic) [Compound 164] as the compound, how does the “Log P” value read?
The value was 3.8^[a].

Which “Log P” value does the source give for CCOC(=O)C(C#N)=C(NC(C)C(=O)NC)c1cccnc1C(F)(F)F (stereo not shown) [Compound 706] here?
The value was 2.05^[a].

For CCOC(=O)C(C#N)=C(NC(C)Cc1c[nH]c2ccccc12)c1ncc(C(F)(F)F)cc1Cl (racemic) [Compound 41], which “Log P” value is on record?
Its value is 4.07^[a].

With CCOC(=O)C(C#N)=C(Nc1ccccc1SC)c1sc(C)nc1C(F)(F)F [Compound 432] as the compound, how does the “Log P” value read?
The value was 3.8^[a].

With C=CCCCC(C=C)NC(=C(C#N)C(=O)OCC)c1cn(C)nc1C(F)F (racemic) [Compound 1016] as the compound, how does the “Log P” value read?
The value was 3.73^[a].

For CCOC(=O)C(C#N)=C(NC(C)c1cccc(OC)n1)c1cccnc1Cl (stereo not shown) [Compound 1438], which “Log P” value is on record?
Its value is 3.5^[a].

With COC(=O)C(C#N)=C(NC(C)CC(F)(F)F)c1cccnc1Cl (stereo not shown) [Compound 757] as the compound, how does the “Log P” value read?
Its value is 2.34^[a].

For CCOC(=O)C(C#N)=C(NC1CCCCC1)c1cccnc1Cl [Compound 761], which “Log P” value is on record?
Its value is 3.55^[a].

For CCOC(=O)C(C#N)=C(NCc1nc2ccccc2s1)c1ccsc1Br [Compound 248], which “Log P” value is on record?
Its value is 3.55^[a].

With COC(=O)C(C#N)=C(NC1CCCC2CCCCC21)c1cccnc1Cl (stereo not shown) [Compound 1084] as the compound, how does the “Log P” value read?
The value was 4.25^[a].

With CCOC(=O)C(C#N)=C(NC(Cc1ncccc1C)C(F)(F)F)c1cccnc1Cl (racemic) [Compound 1262] as the compound, how does the “Log P” value read?
Its value is 3.04^[a].

Which “Log P” value does the source give for CCOC(=O)C(C#N)=C(NCC(C)c1ccccc1Br)c1cn(C)nc1C(F)F (stereo not shown) [Compound 1348] here?
Its value is 3.69^[a].

Which “Log P” value does the source give for CCOC(=O)C(C#N)=C(NC(C)CSc1ccc(Cl)cc1)c1cccnc1Cl (stereo not shown) [Compound 1156] here?
The value was 4.08^[a].

Which “Log P” value does the source give for CCOC(=O)C(C#N)=C(NC(C)(C)C#Cc1ccc(C#N)cc1)c1ccsc1Br [Compound 1094] here?
The value was 4.21^[a].

Which “Log P” value does the source give for CC(NC(=C(C#N)C(=O)N1CCSC1C)c1cccnc1Cl)c1nccs1 (stereo not shown) [Compound 1594] here?
Its value is 2.76^[a].

With CCOC(=O)C(C#N)=C(NC(C)(C)C(=O)OC)c1sc(C)nc1C(F)(F)F [Compound 697] as the compound, how does the “Log P” value read?
The value was 3.23^[a].

Which “Log P” value does the source give for CCOC(=O)C(C#N)=C(Nc1cccc(SC)c1)c1cccnc1Cl [Compound 1266] here?
The value was 3.42^[a].

Which “Log P” value does the source give for COC(=O)C(C#N)=C(NC(C)(C)CF)c1cccnc1Cl [Compound 744] here?
The value was 2.31^[a].

With CCOC(=O)C(C#N)=C(NC(C)(C)C(C)(C)C)c1sccc1Br [Compound 755] as the compound, how does the “Log P” value read?
The value was 4.67^[a].

For CCNC(=O)C(C#N)=C(NC(C)C(C)C)c1cccnc1Cl (stereo not shown) [Compound 958], which “Log P” value is on record?
Its value is 2.94.

With CCCC(CO)NC(=C(C#N)C(=O)OCC)c1cn(C)nc1C(F)F (stereo not shown) [Compound 1335] as the compound, how does the “Log P” value read?
Its value is 2.28^[a].

With CCOC(=O)C(C#N)=C(Nc1ccccc1SC(F)(F)C(F)(F)F)c1cc(C)oc1C [Compound 415] as the compound, how does the “Log P” value read?
The value was 4.7^[a].

same assay, conditions: pH 7.5

With CCOC(=O)C(C#N)=C(Nc1ccccc1SC)c1cc(Cl)cnc1Cl [Compound 346] as the compound, how does the “Log P” value read?
Its value is 3.7.

Which “Log P” value does the source give for CNC(=O)C(C#N)=C(NC(C)c1nccs1)c1ccc(Cl)nc1Cl (stereo not shown) [Compound 1460] here?
The value was 2.29.

Which “Log P” value does the source give for CSc1ccccc1NC(=C(C#N)C(=O)OCC(F)(F)F)c1cccnc1Cl [Compound 344] here?
The value was 3.21.
